Results reported in publication PMC6934184, “Selective DNA-PKcs inhibition extends the therapeutic index of localized radiotherapy and chemotherapy” (The Journal of Clinical Investigation, 2019).

Target: T1, STK16 (PKL12) (Homo sapiens, UniProt O75716)
T1 construct: purchased Thermo Fisher Scientific (Life Technologies) SelectScreen
Assay: SelectScreen LanthaScreen
Format: binding
Details: read-out: % displacement
Procedure, shortened: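 SelectScreen broad panel; activity (Z'LYTE, Adapta) plus binding formats. ATP: Km app for CSF1R Z'LYTE; 10 for CAMK1 Adapta. Readout = % per kinase.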

T1 sequence (O75716 whole entry): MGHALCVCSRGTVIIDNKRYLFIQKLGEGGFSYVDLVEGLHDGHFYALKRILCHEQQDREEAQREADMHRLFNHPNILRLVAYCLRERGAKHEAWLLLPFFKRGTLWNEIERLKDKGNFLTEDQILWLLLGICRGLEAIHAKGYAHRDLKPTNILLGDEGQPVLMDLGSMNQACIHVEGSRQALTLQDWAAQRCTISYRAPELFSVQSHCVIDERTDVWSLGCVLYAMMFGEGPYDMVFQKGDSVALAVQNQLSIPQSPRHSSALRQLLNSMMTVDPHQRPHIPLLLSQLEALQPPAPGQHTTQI

**Q.** How did the inhibition at 1 µM turn out when `CN(C(=O)CN1CCOCC1)c1ccc2sc3c(-c4cccc5c(=O)cc(N6CC7CCC(C6)O7)oc45)cccc3c2c1` [NU5455] was run?
**A.** The inhibition at 1 µM was 10.5%.
